Reference: PubChem BioAssay (NCI)
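Protocol summary: plate cells (96-well), add compound at 5 concentrations, incubate 48 h, interpolate endpoints linearly. TGI: concentration producing complete growth inhibition.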

Key:
Assay in all cases: NCI anticancer screen, dose series, 48 h
NCI-H226 lung = tested on: NCI-H226 lung
UACC-62 melanoma = tested on: UACC-62 melanoma
SN12C renal = tested on: SN12C renal
MDA-MB-435 = tested on: MDA-MB-435
SNB-19 CNS = tested on: SNB-19 CNS
OVCAR-4 ovarian = tested on: OVCAR-4 ovarian
UO-31 renal = tested on: UO-31 renal
786-0 renal = tested on: 786-0 renal
CCRF-CEM leukemia = tested on: CCRF-CEM leukemia
K-562 leukemia = tested on: K-562 leukemia
DU-145 prostate = tested on: DU-145 prostate
SF-295 CNS = tested on: SF-295 CNS
ACHN renal = tested on: ACHN renal
CAKI-1 renal = tested on: CAKI-1 renal
RPMI-8226 leukemia = tested on: RPMI-8226 leukemia
PC-3 prostate = tested on: PC-3 prostate
HOP-92 NSCLC = tested on: HOP-92 NSCLC
HCC-2998 colon = tested on: HCC-2998 colon
MOLT-4 leukemia = tested on: MOLT-4 leukemia
HCT-15 colon = tested on: HCT-15 colon
MDA-MB-231 breast = tested on: MDA-MB-231 breast
COLO 205 colon = tested on: COLO 205 colon
OVCAR-8 ovarian = tested on: OVCAR-8 ovarian
BT-549 breast = tested on: BT-549 breast
OVCAR-5 ovarian = tested on: OVCAR-5 ovarian
NCI/ADR-RES ovarian = tested on: NCI/ADR-RES ovarian
MDA-N = tested on: MDA-N
RXF 393 renal = tested on: RXF 393 renal
NCI-H522 lung = tested on: NCI-H522 lung
EKVX NSCLC = tested on: EKVX NSCLC
A549 NSCLC = tested on: A549 NSCLC
U251 CNS = tested on: U251 CNS
SK-OV-3 ovarian = tested on: SK-OV-3 ovarian
T-47D breast = tested on: T-47D breast
MALME-3M melanoma = tested on: MALME-3M melanoma
SR leukemia = tested on: SR leukemia
OVCAR-3 ovarian = tested on: OVCAR-3 ovarian
HT29 colon = tested on: HT29 colon
SF-268 CNS = tested on: SF-268 CNS
HOP-62 NSCLC = tested on: HOP-62 NSCLC
SK-MEL-2 melanoma = tested on: SK-MEL-2 melanoma
SF-539 CNS = tested on: SF-539 CNS
UACC-257 melanoma = tested on: UACC-257 melanoma
HCT-116 colon = tested on: HCT-116 colon
MCF7 breast = tested on: MCF7 breast
NCI-H23 lung = tested on: NCI-H23 lung
TK-10 renal = tested on: TK-10 renal
KM12 colon = tested on: KM12 colon
A498 renal = tested on: A498 renal
M14 melanoma = tested on: M14 melanoma
SK-MEL-5 melanoma = tested on: SK-MEL-5 melanoma
LOX IMVI melanoma = tested on: LOX IMVI melanoma
SW-620 colon = tested on: SW-620 colon
SK-MEL-28 melanoma = tested on: SK-MEL-28 melanoma
IGROV1 ovarian = tested on: IGROV1 ovarian
SNB-75 CNS = tested on: SNB-75 CNS
HL-60(TB) leukemia = tested on: HL-60(TB) leukemia
NCI-H460 lung = tested on: NCI-H460 lung
HS 578T breast = tested on: HS 578T breast

Structure (SMILES): O=C(CCc1cc(O)cc(O)c1)NCCCNC(=O)CCc1cc(O)cc(O)c1
- TGI (NCI-H226 lung): > 100 µM
- TGI (UACC-62 melanoma): > 100 µM
- TGI (SN12C renal): > 100 µM
- TGI (MDA-MB-435): > 100 µM
- TGI (SNB-19 CNS): > 100 µM
- TGI (OVCAR-4 ovarian): > 100 µM
- TGI (UO-31 renal): > 100 µM
- TGI (786-0 renal): > 100 µM
- TGI (CCRF-CEM leukemia): > 100 µM
- TGI (K-562 leukemia): > 100 µM
- TGI (DU-145 prostate): > 100 µM
- TGI (SF-295 CNS): > 100 µM
- TGI (ACHN renal): > 100 µM
- TGI (CAKI-1 renal): > 100 µM
- TGI (RPMI-8226 leukemia): > 100 µM
- TGI (PC-3 prostate): > 100 µM
- TGI (HOP-92 NSCLC): > 100 µM
- TGI (HCC-2998 colon): > 100 µM
- TGI (MOLT-4 leukemia): > 100 µM
- TGI (HCT-15 colon): > 100 µM
- TGI (MDA-MB-231 breast): > 100 µM
- TGI (COLO 205 colon): > 100 µM
- TGI (OVCAR-8 ovarian): > 100 µM
- TGI (BT-549 breast): > 100 µM
- TGI (OVCAR-5 ovarian): > 100 µM
- TGI (NCI/ADR-RES ovarian): > 100 µM
- TGI (MDA-N): > 100 µM
- TGI (RXF 393 renal): > 100 µM
- TGI (NCI-H522 lung): > 100 µM
- TGI (EKVX NSCLC): > 100 µM
- TGI (A549 NSCLC): > 100 µM
- TGI (U251 CNS): > 100 µM
- TGI (SK-OV-3 ovarian): > 100 µM
- TGI (T-47D breast): > 100 µM
- TGI (MALME-3M melanoma): > 100 µM
- TGI (SR leukemia): > 100 µM
- TGI (OVCAR-3 ovarian): > 100 µM
- TGI (HT29 colon): > 100 µM
- TGI (SF-268 CNS): > 100 µM
- TGI (HOP-62 NSCLC): > 100 µM
- TGI (SK-MEL-2 melanoma): > 100 µM
- TGI (SF-539 CNS): > 100 µM
- TGI (UACC-257 melanoma): > 100 µM
- TGI (HCT-116 colon): > 100 µM
- TGI (MCF7 breast): > 100 µM
- TGI (NCI-H23 lung): > 100 µM
- TGI (TK-10 renal): > 100 µM
- TGI (KM12 colon): > 100 µM
- TGI (A498 renal): > 100 µM
- TGI (M14 melanoma): > 100 µM
- TGI (SK-MEL-5 melanoma): > 100 µM
- TGI (LOX IMVI melanoma): > 100 µM
- TGI (SW-620 colon): > 100 µM
- TGI (SK-MEL-28 melanoma): > 100 µM
- TGI (IGROV1 ovarian): > 100 µM

Structure (SMILES): O=C1N=C2SC(=S)NC(=S)N2NC12c1ccccc1-c1ccccc12
- TGI (UACC-62 melanoma): > 10 µM
- TGI (SN12C renal): > 10 µM
- TGI (OVCAR-4 ovarian): > 10 µM
- TGI (UO-31 renal): > 10 µM
- TGI (786-0 renal): > 10 µM
- TGI (CCRF-CEM leukemia): > 10 µM
- TGI (K-562 leukemia): > 10 µM
- TGI (DU-145 prostate): > 10 µM
- TGI (SNB-75 CNS): > 10 µM
- TGI (HL-60(TB) leukemia): > 10 µM
- TGI (CAKI-1 renal): > 10 µM
- TGI (RPMI-8226 leukemia): > 10 µM
- TGI (HOP-92 NSCLC): > 10 µM
- TGI (HCC-2998 colon): > 10 µM
- TGI (MOLT-4 leukemia): > 10 µM
- TGI (HCT-15 colon): > 10 µM
- TGI (MDA-MB-231 breast): > 10 µM
- TGI (COLO 205 colon): > 10 µM
- TGI (OVCAR-8 ovarian): > 10 µM
- TGI (BT-549 breast): > 10 µM
- TGI (NCI/ADR-RES ovarian): > 10 µM
- TGI (MDA-N): > 10 µM
- TGI (EKVX NSCLC): > 10 µM
- TGI (A549 NSCLC): > 10 µM
- TGI (U251 CNS): > 10 µM
- TGI (SK-OV-3 ovarian): > 10 µM
- TGI (T-47D breast): > 10 µM
- TGI (MALME-3M melanoma): > 10 µM
- TGI (SR leukemia): > 10 µM
- TGI (HT29 colon): > 10 µM
- TGI (SF-268 CNS): > 10 µM
- TGI (HOP-62 NSCLC): > 10 µM
- TGI (SF-539 CNS): > 10 µM
- TGI (NCI-H460 lung): > 10 µM
- TGI (UACC-257 melanoma): > 10 µM
- TGI (MCF7 breast): > 10 µM
- TGI (NCI-H23 lung): > 10 µM
- TGI (TK-10 renal): > 10 µM
- TGI (HS 578T breast): > 10 µM
- TGI (KM12 colon): > 10 µM
- TGI (A498 renal): 6.58 µM
- TGI (M14 melanoma): > 10 µM
- TGI (SK-MEL-5 melanoma): > 10 µM
- TGI (LOX IMVI melanoma): > 10 µM
- TGI (SW-620 colon): > 10 µM
- TGI (IGROV1 ovarian): > 10 µM
